Values of other authors in patent US20160045463A1, “USE OF METALLOPROTEASE INHIBITORS IN THE TREATMENT OF POLYCYSTIC LIVER DISEASES” (UNIVERSIDAD DE SALAMANCA, priority 2012, published 2016).

Key:
PCK rats = conditions: cited from earlier work
polycystic livers = conditions: ADPKD patients subjected to kidney transplant with polycystic livers; cited from earlier work

Row | SMILES | liver cystogenesis (PCK rats) | volume of the liver (polycystic livers)
1 | C[C@@H](O)[C@@H]1NC(=O)[C@H](CCCCN)NC(=O)[C@@H](Cc2c[nH]c3ccccc23)NC(=O)[C@H](Cc2ccccc2)NC(=O)[C@@H](NC(=O)[C@H](N)Cc2ccccc2)CSSC[C@@H](C(=O)N[C@H](CO)[C@@H](C)O)NC1=O [octreotide] | inhibited | 
2 | C=CC[C@@H]1/C=C(\C)C[C@H](C)C[C@H](OC)[C@H]2O[C@@](O)(C(=O)C(=O)N3CCCC[C@H]3C(=O)O[C@H](/C(C)=C/[C@@H]3CC[C@@H](O)[C@H](OC)C3)[C@H](C)[C@@H](O)CC1=O)[C@H](C)C[C@@H]2OC [tacrolimus] |  | increased the volume of the liver
